# Reference: publication PMC7972841, “In Vivo Molecular Imaging of the Efficacy of Aminopeptidase N (APN/CD13) Receptor Inhibitor Treatment on Experimental Tumors Using ^68Ga-NODAGA-c(NGR) Peptide” (BioMed Research International, 2021)
# Like-named read-outs stand apart in the source and are kept apart here.
# Assays:
# HT1080 tumors = assay: Tumor volume, HT1080 tumors; assay type: in vivo, CB17 SCID mice; details: caliper, n = 10/group
# Experimental: (§1) For experimental tumor induction, mice were anaesthetized with a dedicated small animal anaesthesia device (Tec3 Isoflurane Vaporizer, Eickemeyer Veterinary Equipment, UK) using 3% isoflurane (Forane, AbbVie), 0.4 L/min O2, and 1.4 L/min N2O. After depilation of the left shoulder area of the animals, CB17 SCID mice (n = 30) were injected subcutaneously with 1.5 × 10^6 HT1080 (human fibrosarcoma) cells in 150 μL (1/3 part of Matrigel and 2/3 part of saline), and C57BL/6 mice (n = 30) were injected subcutaneously with 3 × 10^6 B16-F10 cells in 150 μL of sterile saline. Tumor growth was assessed by caliper measurements by the same experienced researcher. The tumor size was calculated using the following formula: (largest diameter × smallest diameter^2)/2.
# (§2) For the actinonin-treated groups, 5 mg/kg actinonin (dissolved in 10 μL abs. EtOH and diluted with 140 μL HumAqua (aqua destillata, TEVA, Debrecen, Hungary)) was administrated daily by intraperitoneal injection for 7 days. The control-untreated group was injected intraperitoneally with 150 μL saline for 7 days.
# HT1080 tumor = assay: Ex vivo biodistribution, HT1080 tumor-bearing mice; details: HT1080 tumor-bearing mice treated ip daily (bestatin 15 mg/kg or actinonin 5 mg/kg), mean±SD, n=10
# Experimental: as §2
# (§3) After in vivo PET imaging, control-untreated tumor-bearing and treated tumor-bearing animals were euthanized with 5% Forane and dissected, and blood, urine, and samples were taken from the liver, spleen, kidney, small intestine, large intestine, stomach, heart, lungs, tumors, muscles, and fat. The weight and radioactivity of the selected organs and tissues were measured with a calibrated gamma counter (Hewlett Packard Cobra II Autogama Gamma Counter). The uptake of the APN/CD13-specific ^68Ga-NODAGA-c(NGR) radiotracer was expressed as %ID/g tissue.
# [1] = system: B16-F10 tumors (APN/CD13); details: for T/M ratio of treated tumor: 90 min after iv tracer; for ^68Ga-NODAGA-c(NGR) SUVmean of treated tumor: PET 90 min after iv tracer, mean ± SD
# Experimental: (§4) For experimental tumor induction, mice were anaesthetized with a dedicated small animal anaesthesia device (Tec3 Isoflurane Vaporizer, Eickemeyer Veterinary Equipment, UK) using 3% isoflurane (Forane, AbbVie), 0.4 L/min O2, and 1.4 L/min N2O. After depilation of the left shoulder area of the animals, CB17 SCID mice (n = 30) were injected subcutaneously with 1.5 × 10^6 HT1080 (human fibrosarcoma) cells in 150 μL (1/3 part of Matrigel and 2/3 part of saline), and C57BL/6 mice (n = 30) were injected subcutaneously with 3 × 10^6 B16-F10 cells in 150 μL of sterile saline. […] The tumor size was calculated using the following formula: (largest diameter × smallest diameter^2)/2.
# as §2
# (§5) Five and ten days after tumor cell implantation, control-untreated tumor-bearing and treated tumor-bearing animals were anaesthetized with 3% isoflurane and were injected with 5.5 ± 0.2 MBq APN/CD13-specific ^68Ga-NODAGA-c(NGR) in 150 μL saline via the lateral tail vein. After 90 min incubation time, 20 min static PET scans were performed from the tumorous area using the preclinical miniPET device (University of Debrecen, Faculty of Medicine, Department of Medical Imaging, Division of Nuclear Medicine and Translational Imaging). After 3D OSEM-LOR image reconstruction, volumes of interest (VOIs) were manually drawn around the examined regions using the BrainCAD image analysis software and quantitative standardized uptake values (SUVs) were calculated as follows: SUV = [VOI activity (Bq/mL)]/[injected activity (Bq)/animal weight (g)], assuming a density of 1 g/mL. Tumor-to-muscle (T/M) ratios were calculated from the activity of the tumor and background (muscle).
# APN/CD13 [2] = assay: Western blot analysis of APN/CD13 in B16-F10 tumors; assay type: in vivo, mouse; details: B16-F10 melanoma after treatment, densitometry
# Experimental: For western blot analysis frozen tissue samples were pulverized under liquid nitrogen and tissue homogenization was performed with TissueLyser II (QIAGEN). Cells were lysed in RIPA buffer (50 mM Tris, 150 mM NaCl, 0.1 % SDS, 1 % TritonX 100, 0.5 % sodium deoxycolate, 1 mM EDTA, 1 mM Na3VO4, 1 mM NaF, 1 mM PMSF, protease inhibitor cocktail). […] Upon densitometry, negative control samples (mouse large intestine) were considered to be 1 and values are expressed as fold change relative to controls to reduce unwanted variations. […]
# HT1080 tumors (APN/CD13) = details: for T/M SUVmean ratio of treated tumor: 90 min after iv tracer; for ^68Ga-NODAGA-c(NGR) SUVmean of treated tumor: PET 90 min after iv tracer, mean ± SD
# Experimental: as §4, §2, §5
# B16-F10 tumor = assay: Ex vivo biodistribution, B16-F10 tumor-bearing mice; details: B16-F10 tumor-bearing mice treated ip daily (bestatin 15 mg/kg or actinonin 5 mg/kg), mean±SD, n=10
# Experimental: as §2, §3
# APN/CD13 [3] = assay: Western blot analysis of APN/CD13 in HT1080 tumors; assay type: in vivo, human; details: HT1080 tumors after treatment, densitometry
# Experimental: For western blot analysis, frozen tissue samples were pulverized under liquid nitrogen, and tissue homogenization was performed with TissueLyser II (QIAGEN). Tumors were lysed in a RIPA buffer. After protein isolation, protein samples (10-40 μg) were separated on 10% SDS polyacrylamide gels and electrotransferred onto nitrocellulose membranes. After blocking, the membranes were incubated with primary anti-human and anti-mouse CD13 (from Santa-Cruz Biotechnology, Inc., USA) antibody at the dilution of 1 : 1000 overnight at 4°C. After washing, the membranes were probed with IgG HRP conjugated secondary antibody (Cell Signaling Technology, Inc., Beverly, MA, 1 : 2000). Beta-actin was used as a loading control. Bands were visualized by enhanced chemiluminescence reaction. Densitometry was performed using the ImageJ software. For the detailed protocol, please see Supplementary Material western blot analysis.
# For western blot analysis frozen tissue samples were pulverized under liquid nitrogen and tissue homogenization was performed with TissueLyser II (QIAGEN). […] Upon densitometry, negative control samples (mouse large intestine) were considered to be 1 and values are expressed as fold change relative to controls to reduce unwanted variations. […]
# B16-F10 tumors = assay: Tumor volume, B16-F10 tumors; assay type: in vivo, C57BL/6 mice; details: caliper, n = 10/group
# Experimental: as §1, §2
# [4] = HT1080, day 5, bestatin 15 mg/kg or actinonin 5 mg/kg ip daily
# [5] = HT1080, day 10, bestatin 15 mg/kg or actinonin 5 mg/kg ip daily 7 days
# [6] = B16-F10, day 5, bestatin 15 mg/kg or actinonin 5 mg/kg ip daily
# [7] = B16-F10, day 10, bestatin 15 mg/kg or actinonin 5 mg/kg ip daily 7 days
smiles,measurement,setting,value
CC(C)C[C@H](NC(=O)[C@@H](O)[C@H](N)Cc1ccccc1)C(=O)O [bestatin],tumor volume,"HT1080 tumors; HT1080, day 3 (start of treatment)",52.3 ± 2.8 mm^3
same,tumor volume,HT1080 tumors; [4],17 ± 1.2 mm^3
same,tumor volume,HT1080 tumors; [5],7.0 ± 2.0 mm^3
same,"T/M ID%/g, treated animals",HT1080 tumor,1.45±0.15
same,T/M ratio of treated tumor,[1]; [6],1.11 ± 0.01
same,^68Ga-NODAGA-c(NGR) SUVmean of treated tumor,"[1]; B16-F10, day 5, ip daily from day 3 (bestatin 15 mg/kg, actinonin 5 mg/kg)",0.03 ± 0.01
same,T/M ratio of treated tumor,[1]; [7],1.63 ± 0.09
same,^68Ga-NODAGA-c(NGR) SUVmean of treated tumor,"[1]; B16-F10, day 10, ip daily 7 days (bestatin 15 mg/kg, actinonin 5 mg/kg)",0.04 ± 0.001
same,expression of APN/CD13 in tumor vs untreated,APN/CD13 [2],significantly lower
same,T/M SUVmean ratio of treated tumor,HT1080 tumors (APN/CD13); [4],0.57 ± 0.2
same,^68Ga-NODAGA-c(NGR) SUVmean of treated tumor,"HT1080 tumors (APN/CD13); HT1080, day 5, ip daily from day 3 (bestatin 15 mg/kg, actinonin 5 mg/kg)",0.02 ± 0.01
same,T/M SUVmean ratio of treated tumor,HT1080 tumors (APN/CD13); [5],0.61 ± 0.20
same,^68Ga-NODAGA-c(NGR) SUVmean of treated tumor,"HT1080 tumors (APN/CD13); HT1080, day 10, ip daily 7 days (bestatin 15 mg/kg, actinonin 5 mg/kg)",0.01 ± 0.01
same,"T/M ID%/g, treated animals",B16-F10 tumor,2.40±0.92
same,amount of APN/CD13 protein in tumor vs control-untreated,APN/CD13 [3],did not significantly reduce
same,tumor volume,"B16-F10 tumors; B16-F10, day 3 (start of treatment)",52.1 ± 2.6 mm^3
same,tumor volume,B16-F10 tumors; [6],65.0 ± 5.2 mm^3
same,tumor volume,B16-F10 tumors; [7],62.0 ± 2.8 mm^3
